The source of these data is ChEMBL document CHEMBL4699440, “Comprehensive review on the anti-bacterial activity of 1,2,3-triazole hybrids” (Eur J Med Chem, 2019).

Molecules are shown by their SMILES. Converted amounts (≈) assume the structure as drawn.

Experiment [1] deals with Aspergillus flavus. Nature of the experiment: Antifungal activity against Aspergillus flavus NCIM 524 incubated for 3 to 4 days by serial plate dilution method. The format is functional. The note with it: time day 3-4.
For experiment [2], the system named is Talaromyces marneffei. The experiment in a line: Antifungal activity against Penicillium marneffei incubated for 3 to 4 days by serial plate dilution method. It counts as functional. The conditions noted are these: time day 3-4.
Experiment [3] deals with Aspergillus fumigatus. Nature of the experiment: Antifungal activity against Aspergillus fumigatus NCIM 902 incubated for 3 to 4 days by serial plate dilution method. The format is functional. The conditions noted are these: time day 3-4.
The test system of experiment [4] is Escherichia coli. The experiment in a line: Antibacterial activity against Escherichia coli ATCC 25922 incubated for 16 to 18 hrs by serial plate dilution method. The format is functional. The conditions noted are these: time hrs 16-18.
Experiment [5] concerns Trichophyton mentagrophytes. Nature of the experiment: Antifungal activity against Trichophyton mentagrophytes incubated for 3 to 4 days by serial plate dilution method. The conditions noted are these: time day 3-4. It counts as functional.
In experiment [6] the test system is Staphylococcus aureus. The experiment in a line: Antibacterial activity against methicillin-resistant Staphylococcus aureus ATCC 25923 incubated for 16 to 18 hrs by serial plate dilution method. The note with it: time hrs 16-18. The format is functional.
The subject of experiment [7] is Klebsiella pneumoniae. Nature of the experiment: Antibacterial activity against Klebsiella pneumoniae incubated for 16 to 18 hrs by serial plate dilution method. It counts as functional. The conditions noted are these: time hrs 16-18.
For experiment [8], the system named is Pseudomonas aeruginosa. Nature of the experiment: Antibacterial activity against Pseudomonas aeruginosa ATCC 27853 incubated for 16 to 18 hrs by serial plate dilution method. The conditions noted are these: time hrs 16-18. The format is functional.
The test system of experiment [9] is Bacillus cereus. The experiment in a line: Antibacterial activity against Bacillus cereus MTCC 430 incubated for 24 hrs by macrodilution tube method. It counts as functional.
Experiment [10] has as its system Staphylococcus aureus. The experiment in a line: Antibacterial activity against Staphylococcus aureus MTCC 96 incubated for 24 hrs by macrodilution tube method. It counts as functional.
For experiment [11], the system named is KB. The experiment in a line: Cytotoxicity against human KB cells. The conditions noted are these: Homo sapiens, KB. It counts as cell-based.
The subject of experiment [12] is Bacillus cereus. Nature of the experiment: Antibacterial activity against Bacillus cereus. The format is functional.
Experiment [13] relates to Staphylococcus aureus. Nature of the experiment: Antibacterial activity against Staphylococcus aureus. It counts as functional.

As to `Cc1c(C(=O)N/N=C/c2ccccc2O)nnn1-c1cc(C(F)(F)F)nc2c(C(F)(F)F)cccc12`, the minimum inhibitory concentration (MIC) in experiment [1], in [2], in [3], in experiment [4], in [5] and in experiment [6] was 6.25 µg/mL (≈ 12.3 µM) in each case. For the same molecule, the minimum inhibitory concentration (MIC) in [7] and in [8] was 6.25 µg/mL (≈ 12.3 µM) in each case.
For the molecule `CC1(C)CC(=O)C2=C(C1)Oc1cc3ccc(OCc4cn(-c5ccnc6cc(Cl)ccc56)nn4)cc3cc1C2c1cccc2ccccc12` (centres undefined), the minimum inhibitory concentration (MIC) in experiment [9] and in experiment [10] was 16 µg/mL (≈ 24.1 µM) each time.
On to `COc1ccc(/C=N/NC(=O)c2nnn(-c3cc(C(F)(F)F)nc4c(C(F)(F)F)cccc34)c2C)c(OC)c1OC`, for which the MIC in [1], in experiment [2], in experiment [3], in [4], in [5] and in [6] was 6.25 µg/mL (≈ 10.7 µM) throughout. The minimum inhibitory concentration (MIC) in experiment [7] and in experiment [8] was 6.25 µg/mL (≈ 10.7 µM) each time.
As to `COc1cccc(/C=N/NC(=O)c2nnn(-c3cc(C(F)(F)F)nc4c(C(F)(F)F)cccc34)c2C)c1`, the MIC in experiment [1], in experiment [2], in experiment [3], in experiment [4], in [5] and in experiment [6] was 6.25 µg/mL (≈ 12 µM) each time. Moreover, the minimum inhibitory concentration (MIC) in experiment [7] and in experiment [8] was 6.25 µg/mL (≈ 12 µM) each time.
`COc1ccc(C2C3=C(CC(C)(C)CC3=O)Oc3cc4ccc(OCc5cn(-c6ccnc7cc(Cl)ccc67)nn5)cc4cc32)cc1` (centres undefined): the MIC in experiment [9] and in experiment [10] was 16 µg/mL (≈ 24.9 µM) throughout.
In the case of `Cc1ccsc1/C=N/NC(=O)c1nnn(-c2cc(C(F)(F)F)nc3c(C(F)(F)F)cccc23)c1C`, the MIC in [1], in [2], in experiment [3], in [4], in [5] and in [6] was 6.25 µg/mL (≈ 12.2 µM) each time. In addition, the MIC in experiment [7] and in experiment [8] was 6.25 µg/mL (≈ 12.2 µM) in each case.
As to `COc1ccc(/C=N/NC(=O)c2nnn(-c3cc(C(F)(F)F)nc4c(C(F)(F)F)cccc34)c2C)c([N+](=O)[O-])c1OC`, the minimum inhibitory concentration (MIC) in experiment [1], in experiment [2], in experiment [3], in [4], in experiment [5] and in experiment [6] was 6.25 µg/mL (≈ 10.5 µM) in each case. Further, the MIC in experiment [7] and in experiment [8] was 6.25 µg/mL (≈ 10.5 µM) throughout.
Turning to `O=C1CCCC2=C1C(c1cccc3ccccc13)c1cc3cc(OCc4cn(-c5ccnc6cc(Cl)ccc56)nn4)ccc3cc1O2` (centres undefined), the MIC in experiment [9] and in [10] was 16 µg/mL (≈ 25.2 µM) in each case.
On to `Cc1c(C(=O)N/N=C/c2ccc([N+](=O)[O-])cc2)nnn1-c1cc(C(F)(F)F)nc2c(C(F)(F)F)cccc12`, for which the minimal inhibitory concentration (MIC) in [1], in experiment [2], in [3], in experiment [4], in [5] and in experiment [6] was 6.25 µg/mL (≈ 11.6 µM) each time. For the same molecule, the minimal inhibitory concentration (MIC) in experiment [7] and in experiment [8] was 6.25 µg/mL (≈ 11.6 µM) in each case.
`Cc1c(C(=O)N/N=C/c2cccnc2)nnn1-c1cc(C(F)(F)F)nc2c(C(F)(F)F)cccc12`: the MIC in experiment [1], in [2], in experiment [3], in experiment [4], in [5] and in [6] was 6.25 µg/mL (≈ 12.7 µM) throughout. For the same molecule, the minimal inhibitory concentration (MIC) in experiment [7] and in [8] was 6.25 µg/mL (≈ 12.7 µM) in each case.
As for `Cc1ccc(C2C3=C(CC(C)(C)CC3=O)Oc3cc4ccc(OCc5cn(-c6ccnc7cc(Cl)ccc67)nn5)cc4cc32)cc1` (centres undefined), the MIC in experiment [9] and in experiment [10] was 16 µg/mL (≈ 25.5 µM) each time.
With `CC1(C)CC(=O)C2=C(C1)Oc1cc3ccc(OCc4cn(-c5ccnc6cc(Cl)ccc56)nn4)cc3cc1C2c1ccc(F)cc1` (centres undefined), the MIC in experiment [9] and in experiment [10] was 16 µg/mL (≈ 25.4 µM) throughout.
Regarding `COc1ccc(/C=N/NC(=O)c2nnn(-c3cc(C(F)(F)F)nc4c(C(F)(F)F)cccc34)c2C)cc1OC`, the MIC in experiment [1], in experiment [2], in [3], in experiment [4], in [5] and in [6] was 6.25 µg/mL (≈ 11.3 µM) throughout. Moreover, the MIC in experiment [7] and in experiment [8] was 6.25 µg/mL (≈ 11.3 µM) throughout.
Regarding `CC1(C)CC(=O)C2=C(C1)Oc1cc3ccc(OCc4cn(-c5ccnc6cc(Cl)ccc56)nn4)cc3cc1C2c1ccc(Br)cc1` (centres undefined), the minimum inhibitory concentration (MIC) in experiment [9] and in experiment [10] was 16 µg/mL (≈ 23.1 µM) in each case.
As to `O=C1CCCC2=C1C(c1ccccc1)c1cc3cc(OCc4cn(-c5ccnc6cc(Cl)ccc56)nn4)ccc3cc1O2` (centres undefined), the MIC in experiment [9] and in [10] was 16 µg/mL (≈ 27.3 µM) each time.
Take `COc1ccc2cc(/C=N/NC(=O)c3nnn(-c4cc(C(F)(F)F)nc5c(C(F)(F)F)cccc45)c3C)ccc2c1`: the minimum inhibitory concentration (MIC) in experiment [1], in experiment [2], in [3], in experiment [4], in [5] and in experiment [6] was 6.25 µg/mL (≈ 10.9 µM) throughout. In addition, the minimum inhibitory concentration (MIC) in experiment [7] and in [8] was 6.25 µg/mL (≈ 10.9 µM) each time.
With `Cc1c(C(=O)N/N=C/c2ccc(-c3ccccc3)cc2)nnn1-c1cc(C(F)(F)F)nc2c(C(F)(F)F)cccc12`, the MIC in experiment [1], in experiment [2], in experiment [3], in [4], in [5] and in experiment [6] was 6.25 µg/mL (≈ 11 µM) each time. Besides, the MIC in experiment [7] and in experiment [8] was 6.25 µg/mL (≈ 11 µM) in each case.
On to `COc1cccc(/C=N/NC(=O)c2nnn(-c3cc(C(F)(F)F)nc4c(C(F)(F)F)cccc34)c2C)c1O`, for which the MIC in experiment [1], in experiment [2], in [3], in experiment [4], in experiment [5] and in experiment [6] was 6.25 µg/mL (≈ 11.6 µM) in each case. Also, the MIC in experiment [7] and in experiment [8] was 6.25 µg/mL (≈ 11.6 µM) throughout.
With `Cc1ccc(C2C3=C(CCCC3=O)Oc3cc4ccc(OCc5cn(-c6ccnc7cc(Cl)ccc67)nn5)cc4cc32)cc1` (centres undefined), the minimum inhibitory concentration (MIC) in experiment [9] and in experiment [10] was 16 µg/mL (≈ 26.7 µM) throughout.
As for `Cc1c(C(=O)N/N=C/c2ccccc2)nnn1-c1cc(C(F)(F)F)nc2c(C(F)(F)F)cccc12`, the MIC in experiment [1], in experiment [2], in experiment [3], in experiment [4], in experiment [5] and in experiment [6] was 6.25 µg/mL (≈ 12.7 µM) in each case. Also, the MIC in [7] and in experiment [8] was 6.25 µg/mL (≈ 12.7 µM) each time.
In the case of `CC1(C)CC(=O)C2=C(C1)Oc1cc3ccc(OCc4cn(-c5ccnc6cc(Cl)ccc56)nn4)cc3cc1C2c1ccccc1` (centres undefined), the MIC in experiment [9] and in [10] was 16 µg/mL (≈ 26.1 µM) each time.
Consider `CC1(C)CC(=O)C2=C(C1)Oc1cc3ccc(OCc4cn(-c5ccnc6cc(Cl)ccc56)nn4)cc3cc1C2c1ccc([N+](=O)[O-])cc1` (centres undefined), for which the minimal inhibitory concentration (MIC) in experiment [9] and in experiment [10] was 16 µg/mL (≈ 24.3 µM) in each case.
As for `CC1(C)CC(=O)C2=C(C1)Oc1cc3ccc(OCc4cn(-c5ccnc6cc(Cl)ccc56)nn4)cc3cc1C2c1ccc(Cl)cc1` (centres undefined), the MIC in experiment [9] and in experiment [10] was 16 µg/mL (≈ 24.7 µM) in each case.
In the case of `COc1ccc(/C=N/NC(=O)c2nnn(-c3cc(C(F)(F)F)nc4c(C(F)(F)F)cccc34)c2C)cc1`, the MIC in experiment [1], in [2], in [3], in experiment [4], in experiment [5] and in [6] was 6.25 µg/mL (≈ 12 µM) throughout. Moreover, the minimal inhibitory concentration (MIC) in [7] and in [8] was 6.25 µg/mL (≈ 12 µM) each time.
Regarding `COc1ccc(C2C3=C(CC(C)(C)CC3=O)Oc3cc4ccc(OCc5cn(-c6ccnc7cc(Cl)ccc67)nn5)cc4cc32)cc1OC` (centres undefined), the minimal inhibitory concentration (MIC) in [9] and in experiment [10] was 16 µg/mL (≈ 23.8 µM) in each case.
With `Cc1c(C(=O)N/N=C/c2ccc(O)cc2)nnn1-c1cc(C(F)(F)F)nc2c(C(F)(F)F)cccc12`, the MIC in [1], in experiment [2], in experiment [3], in experiment [4], in experiment [5] and in experiment [6] was 6.25 µg/mL (≈ 12.3 µM) in each case. The MIC in experiment [7] and in experiment [8] was 6.25 µg/mL (≈ 12.3 µM) throughout.
For the molecule `CC(C)c1ccc(C2C3=C(CCCC3=O)Oc3cc4ccc(OCc5cn(-c6ccnc7cc(Cl)ccc67)nn5)cc4cc32)cc1` (centres undefined), the minimal inhibitory concentration (MIC) in [9] and in experiment [10] was 16 µg/mL (≈ 25.5 µM) in each case.
With `CC(C)C[C@H](NC(=O)CNC(=O)C(C)(C)NC(=O)[C@@H](NC(=O)C(C)(C)NC(=O)[C@H](CCC(N)=O)NC(=O)[C@H](C)NC(=O)C(C)(C)NC(=O)[C@H](C)NC(=O)C(C)(C)NC(=O)[C@@H]1CCN(C(=O)C(C)(C)n2cc(-c3ccc4ccc5cccc6ccc3c4c56)nn2)C1)C(C)C)C(=O)NC(C)(C)C(=O)N1CCC[C@@H]1C(=O)N[C@H](C(=O)NC(C)(C)C(=O)NC(C)(C)C(=O)N[C@@H](CCC(N)=O)C(=O)N[C@@H](CCC(N)=O)C(=O)N[C@H](CO)Cc1ccccc1)C(C)C`, the IC50 in [11] came out at 2.9 µg/mL (≈ 1.33 µM). Moreover, the MIC in experiment [12] and in experiment [13] was 1.56 µg/mL (≈ 0.718 µM) throughout.
`CC(C)C[C@H](NC(=O)CNC(=O)C(C)(C)NC(=O)[C@@H](NC(=O)C(C)(C)NC(=O)[C@H](CCC(N)=O)NC(=O)[C@H](C)NC(=O)C(C)(C)NC(=O)[C@H](C)NC(=O)C(C)(C)NC(=O)[C@@H]1CCN(C(=O)C(C)(C)n2cc(-c3ccc(F)cc3F)nn2)C1)C(C)C)C(=O)NC(C)(C)C(=O)N1CCC[C@@H]1C(=O)N[C@H](C(=O)NC(C)(C)C(=O)NC(C)(C)C(=O)N[C@@H](CCC(N)=O)C(=O)N[C@@H](CCC(N)=O)C(=O)N[C@H](CO)Cc1ccccc1)C(C)C` returned a half-inhibitory concentration (IC50) in experiment [11] of 2.9 µg/mL (≈ 1.39 µM). In addition, the MIC in [12] and in experiment [13] was 1.56 µg/mL (≈ 0.748 µM) each time.
